SMILES strings stand for the structures. Converted amounts (≈) assume the structure as drawn. Like-named read-outs stand apart in the source and are kept apart here.

Results on 13 compounds are retold here after patent publication US11661431B2, “Thienopyrrole compounds” (Gilead Sciences, Inc., priority 2021, dated 2023).

Data set [1] addresses MATE2-K (multidrug and toxin extrusion protein 2) (Homo sapiens (Human), UniProt Q86VL8). Description: MATE2-K IC50 assay (14C-metformin uptake in transfected MDCK-II cells). The format is in vitro ADME. The procedure:
MATE2-K (multidrug and toxin extrusion protein 2) is expressed in the apical membrane in the kidney and mediates the elimination of compounds to urine. MDCK-II cells were maintained in DMEM with low glucose and 10% FBS. Cells passages up to 40 were seeded at 60K±10K cells/well on 96-well, transwell membrane plates approximately 24 hours before transfection. Transport assays were carried out approximately 48 hours after transfection. […]. The assay plate was then placed in a 37° C. incubator with orbital shaking at approximately 60 RPM for the pre-incubation time of 15 minutes. […]. The assay plate was incubated at 37° C. with orbital shaking at approximately 60 RPM for the incubation time of 5 minutes. At end of the 5-minute incubation, 15 μL of dosing solution was removed from each well containing the compound being tested and measured using LC/MS/MS for dose recovery assessment. The assay wells were then washed four times with ice cold PBS. 60 μL cell extraction solution was added to each well and the plate was incubated at 37° C. with orbital shaking at approximately 60 RPM for the 15 minutes. After this incubation, 30 μL was removed from each well, added to 200 μL scintillation fluid, and counted on a 1450 Microbeta (Perkin-Elmer) to measure the probe substrate uptake. Inhibition potential of the compound being tested was calculated by dividing the transporter-mediated uptake rate in presence of the compound being tested or the reference inhibitor by the transporter-mediated uptake rate in presence of vehicle control and fitted to a sigmoidal function to determine the IC50 values.

The nature of data set [2]: Kinetic solubility at pH 7.4. The conditions noted are these: 1×PBS buffer (pH 7.4), 22.8 °C, pH 7.4, aqueous buffer, kinetic from dmso stock.
Experimental: Kinetic Solubility at pH 7.4
The final DMSO Concentration was 1.0% and maximum theoretical compound concentration is 100 μM. The filter plate was sealed. […] The collection plate was sealed for analysis.
Filtrates were injected into the nitrogen detector for quantification on Analiza's Automated Discovery Workstation. The results are reported in μg/ml.
The filtrates were quantified with respect to this calibration curve. The calculated solubility values were corrected for background nitrogen present in the DMSO, and the media used to prepare the samples.
The 1×PBS buffer (pH 7.4) was prepared by adding 50 mL of phosphate buffered saline solution 10×, PBS (Fisher Bioreagent part number BP399-500) to approximately 450 mL HPLC grade H2O. The volume of the solution was then adjusted to 500 mL for a total dilution factor of 1:10 and a final PBS concentration of 1×. The pH of the final solution was measured and found to be 7.4.
Each compound tested was analyzed as a trifluoroacetate salt.
In a further data set the target is TLR8 (Homo sapiens (Human), UniProt Q9NR97). Description: TLR8 human peripheral blood mononuclear cell (PBMC) cell-based assay (Compound A as agonist; TNFα and IL12p40 readout). The note with it: human PBMCs, TLR8 agonist Compound A at 800 nM, 6 hours, antagonist potency; read-out: TLR-8 EC50.
The next data set addresses TLR7 (Homo sapiens (Human), UniProt Q9NYK1). Description: TLR7 human peripheral blood mononuclear cell (PBMC) cell-based assay (GS-986 as agonist; IL-6 and IFNα readout). The note with it: human PBMCs, TLR7 agonist GS-986 at 400 nM, 6 hours, antagonist potency; read-out: TLR-7 EC50. Summed up:
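Human PBMCs (100,000 cells/well) preincubated 1 h at 37 °C with antagonist in 10-point dose response, then stimulated with TLR7 agonist for a further 6 h at 37 °C, 5% CO2. Supernatant IL-6 and IFNα measured by electrochemiluminescence immunoassay.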

For data set [3], the system named is cryopreserved hepatocytes. Briefly: Human hepatic stability in cryopreserved hepatocytes. The note with it: 1×10^6 cells/mL, aliquots at 0, 1, 3 and 6 hours, LC-MS/MS.
Experimental: Each tested compound was incubated in suspensions of cryopreserved hepatocytes at a final concentration of 1 μM. Vials containing cryopreserved hepatocytes were removed from liquid nitrogen and immediately immersed in a 37° C. water bath. The vials were swirled gently until the contents had thawed. They were then immediately emptied into 48 mL of pre-warmed HT medium in a 50 mL conical tube. Cells remaining in the vial were resuspended with 1.0 mL of pre-warmed HT medium and added to the conical tube. The tube was capped and then gently inverted several times to re-suspend the hepatocytes. The cell suspension was centrifuged at 500×g for 10 minutes at room temperature and the supernatant discarded. The cell pellet was loosened by gently swirling the centrifuge tube. Non-supplemented KHB medium was added to obtain the appropriate target cell density.
For incubations, aliquots of hepatocyte suspension (250 mL at a concentration of 2×10^6 cells/mL) were added to 250 mL of 2 mM of each tested compound in KHB, in duplicate wells in a 24-well plate. Final concentration in the incubations were 1×10^6 cells/mL and 1 mM of each tested compound. […] A cell-free control was also tested in parallel with the incubations. The incubations were carried out with gentle shaking in a 37° C. incubator under a humid atmosphere of 95% air/5% CO2 (v/v). Aliquots (100 mL) were removed after 0, 1, 3, and 6 hours and added to 200 mL IS/Q. The samples were then placed on a shaker for 10 min followed by centrifugation at 3000×g for 20 min. The supernatant was transferred to a new plate and diluted with 100 μL of water to reduce the organic solvent content and then placed on a shaker for 10 mins. Samples were injected and analyzed using LC-MS/MS.
Setting [4] is: transfected MDCK-II cells, 10 μM 14C-metformin probe substrate, read-out: MATE2-K IC50.

Chain of TLR7 (Q9NYK1 27-1049): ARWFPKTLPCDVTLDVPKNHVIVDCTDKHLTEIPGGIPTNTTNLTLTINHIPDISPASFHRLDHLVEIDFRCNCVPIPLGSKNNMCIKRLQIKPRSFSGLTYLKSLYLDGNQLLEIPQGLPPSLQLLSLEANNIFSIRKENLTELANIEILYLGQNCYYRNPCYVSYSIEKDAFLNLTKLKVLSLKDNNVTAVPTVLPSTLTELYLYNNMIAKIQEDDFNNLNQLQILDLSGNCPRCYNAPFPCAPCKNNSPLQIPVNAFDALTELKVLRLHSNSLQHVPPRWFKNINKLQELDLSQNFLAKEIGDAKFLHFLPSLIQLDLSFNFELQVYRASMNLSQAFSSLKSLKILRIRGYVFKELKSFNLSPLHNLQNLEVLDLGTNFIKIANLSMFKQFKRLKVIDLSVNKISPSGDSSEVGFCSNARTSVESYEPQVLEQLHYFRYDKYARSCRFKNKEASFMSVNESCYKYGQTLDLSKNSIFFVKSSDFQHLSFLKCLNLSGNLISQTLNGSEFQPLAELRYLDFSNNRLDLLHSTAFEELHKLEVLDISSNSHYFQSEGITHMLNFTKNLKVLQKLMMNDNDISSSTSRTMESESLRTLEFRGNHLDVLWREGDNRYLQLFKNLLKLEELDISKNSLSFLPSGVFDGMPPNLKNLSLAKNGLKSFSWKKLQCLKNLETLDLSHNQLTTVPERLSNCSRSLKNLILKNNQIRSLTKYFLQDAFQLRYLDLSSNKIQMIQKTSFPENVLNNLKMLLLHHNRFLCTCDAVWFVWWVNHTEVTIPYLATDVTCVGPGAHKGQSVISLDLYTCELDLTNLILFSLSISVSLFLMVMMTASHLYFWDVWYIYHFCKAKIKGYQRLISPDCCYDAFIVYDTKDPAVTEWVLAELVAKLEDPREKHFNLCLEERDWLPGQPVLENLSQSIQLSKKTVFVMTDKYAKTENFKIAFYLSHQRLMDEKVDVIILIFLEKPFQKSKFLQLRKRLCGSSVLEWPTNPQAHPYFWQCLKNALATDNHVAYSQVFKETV
Chain of MATE2-K (multidrug and toxin extrusion protein 2) (Q86VL8 other isoform, or with tags, fused parts or gaps, species assumed): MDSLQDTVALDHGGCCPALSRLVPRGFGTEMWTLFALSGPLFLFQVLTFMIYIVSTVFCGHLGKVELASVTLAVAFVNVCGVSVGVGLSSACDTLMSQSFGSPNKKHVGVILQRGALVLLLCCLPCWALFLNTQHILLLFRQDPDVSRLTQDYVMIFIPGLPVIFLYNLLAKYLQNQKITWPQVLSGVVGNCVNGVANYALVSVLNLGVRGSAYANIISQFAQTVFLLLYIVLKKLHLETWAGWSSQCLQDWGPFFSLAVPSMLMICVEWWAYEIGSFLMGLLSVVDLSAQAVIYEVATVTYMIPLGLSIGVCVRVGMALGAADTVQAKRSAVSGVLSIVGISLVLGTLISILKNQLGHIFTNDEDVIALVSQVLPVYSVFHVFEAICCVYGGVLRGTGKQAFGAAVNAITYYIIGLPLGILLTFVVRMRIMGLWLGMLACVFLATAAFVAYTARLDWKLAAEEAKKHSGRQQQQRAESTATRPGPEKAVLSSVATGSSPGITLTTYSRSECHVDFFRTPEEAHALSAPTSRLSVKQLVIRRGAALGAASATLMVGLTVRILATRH
Chain of TLR8 (Q9NR97 27-1041): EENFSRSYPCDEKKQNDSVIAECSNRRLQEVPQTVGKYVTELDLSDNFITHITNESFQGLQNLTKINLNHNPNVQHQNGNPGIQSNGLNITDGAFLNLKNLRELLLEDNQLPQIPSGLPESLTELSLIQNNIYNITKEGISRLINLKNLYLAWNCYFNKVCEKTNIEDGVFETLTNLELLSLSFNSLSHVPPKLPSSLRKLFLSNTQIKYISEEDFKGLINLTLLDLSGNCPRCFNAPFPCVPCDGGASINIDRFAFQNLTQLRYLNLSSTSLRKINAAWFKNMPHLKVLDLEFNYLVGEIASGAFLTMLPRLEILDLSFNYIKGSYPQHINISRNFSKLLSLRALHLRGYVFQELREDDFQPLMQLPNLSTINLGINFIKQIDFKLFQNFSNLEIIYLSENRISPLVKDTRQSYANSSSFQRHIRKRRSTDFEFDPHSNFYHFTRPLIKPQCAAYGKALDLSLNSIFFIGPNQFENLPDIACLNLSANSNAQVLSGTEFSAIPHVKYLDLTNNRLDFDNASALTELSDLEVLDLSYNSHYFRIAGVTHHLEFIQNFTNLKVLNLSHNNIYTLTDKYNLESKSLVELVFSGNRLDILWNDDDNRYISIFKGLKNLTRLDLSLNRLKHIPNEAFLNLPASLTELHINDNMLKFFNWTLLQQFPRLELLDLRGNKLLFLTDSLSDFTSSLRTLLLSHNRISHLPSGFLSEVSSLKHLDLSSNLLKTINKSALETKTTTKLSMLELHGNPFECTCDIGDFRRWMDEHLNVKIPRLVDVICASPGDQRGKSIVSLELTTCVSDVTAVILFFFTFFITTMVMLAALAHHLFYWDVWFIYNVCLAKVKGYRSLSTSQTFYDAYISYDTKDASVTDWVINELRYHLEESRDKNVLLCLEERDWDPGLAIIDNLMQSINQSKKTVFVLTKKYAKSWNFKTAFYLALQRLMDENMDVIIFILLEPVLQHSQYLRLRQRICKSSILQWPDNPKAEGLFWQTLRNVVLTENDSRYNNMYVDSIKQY

One may read the IC50 as the concentration needed to halve the response being measured. What is called solubility (kinetic) is solubility judged after dilution from a stock solution rather than from solid. The EC50 is the concentration at which the effect is half-maximal. Turning to `Cc1c(-c2[nH]c3sc([C@@H]4C[C@@H]5C[C@H]4CN5C(C)C(N)=O)c(C)c3c2C(C)C)cn2ncnc2c1C` (single isomer, unassigned) [Example 100], the 50% inhibitory concentration (IC50) in data set [1] (setting [4]) amounted to 9700 nM. This compound registered a kinetic solubility at 24 h in data set [2] of 23.5 µg/mL (≈ 47.9 µM). In addition, the concentration for a half-maximal effect (EC50) was 0.71 nM on TLR8 and 0.32 nM at TLR7.

For `Cc1c(-c2[nH]c3sc(C4CCN(C(=O)[C@H]5COCCN5)CC4)c(C)c3c2C(C)C)cn2ncnc2c1C` [Example 56], in data set [1] (setting [4]), the half-maximal inhibitory concentration (IC50) worked out at 7700 nM. For the same compound, the solubility (kinetic) at 24 h in data set [2] came out at 26.5 µg/mL (≈ 50.9 µM). Also, in data set [3], the “Predicted Clearance” value is 4.17 mL/min/kg. Also, the figures for the concentration for a half-maximal effect (EC50) on TLR8 and at TLR7 were 2.46 nM and 0.24 nM, respectively.

Consider `CNC(=O)CN1C[C@@H]2C[C@H]1C[C@H]2c1sc2[nH]c(-c3cn4ncnc4c(C)c3C)c(C(C)C)c2c1C` [Example 82], for which the IC50 in data set [1] is above 14500 nM. Further, the values for the EC50 on TLR8 and at TLR7 were 0.17 nM and 0.37 nM, respectively.

For the compound `Cc1c(-c2[nH]c3sc([C@H]4C[C@H]5C[C@@H]4CN5CC(N)=O)c(C)c3c2C(C)C)cn2ncnc2c1C` [Example 84], the “Predicted Clearance” value in data set [3] was 8.83 mL/min/kg. Further, the values for the EC50 on TLR8 and on TLR7 were 0.81 nM and 0.13 nM, respectively.

On to `Cc1c(-c2[nH]c3sc([C@@H]4C[C@@H]5C[C@H]4CN5CC(N)=O)cc3c2C(C)C)cn2ncnc2c1C` [Example 97], for which the solubility (kinetic) at 24 h in data set [2] is 22.8 µg/mL (≈ 49.3 µM). Also, the “Predicted Clearance” value in data set [3] was 13.5 mL/min/kg. Further, the half-maximal effective concentration (EC50) at TLR8 was 1.09 nM; on TLR7, 0.31 nM.

`Cc1c(-c2[nH]c3sc(C4CCN(C(=O)[C@H]5CCCN5)CC4)c(C)c3c2C(C)C)cn2ncnc2c1C` [Example 98]: in data set [2], the solubility (kinetic) at 24 h was 24.9 µg/mL (≈ 49.3 µM). In data set [3], the “Predicted Clearance” value was 1.83 mL/min/kg. For the same compound, the concentration giving a half-maximal response (EC50) at TLR8 was determined as 4.48 nM; at TLR7, 0.05 nM.

Compound `Cc1c(-c2[nH]c3sc([C@@H]4C[C@@H]5C[C@H]4CN5Cc4cn(C)nn4)c(C)c3c2C(C)C)cn2ncnc2c1C` [Example 175] showed a kinetic solubility at 24 h in data set [2] of 21.1 µg/mL (≈ 41 µM). In addition, in data set [3], the “Predicted Clearance” value was 4.33 mL/min/kg. For the same compound, the EC50 on TLR8 and at TLR7 was below 0.05 nM each time.

In the case of `Cc1c(-c2[nH]c3sc([C@H]4C[C@@H]5C[C@H]4CN5CC(N)=O)c(C)c3c2C(C)C)cn2ncnc2c1C` [Example 183], in data set [3], the “Predicted Clearance” value was 10.7 mL/min/kg. The concentration giving a half-maximal response (EC50) at TLR8 was 2.82 nM; at TLR7, 0.07 nM.

In turn, `Cc1c(-c2[nH]c3sc(C4CCN(CC(N)=O)CC4)cc3c2C(C)C)cn2ncnc2c1C` [Example 221] had a kinetic solubility at 24 h in data set [2] of 1 µg/mL (≈ 2.22 µM). Moreover, the “Predicted Clearance” value in data set [3] was 2.67 mL/min/kg. The EC50 at TLR8 stood at 3.2 nM; at TLR7 it was 0.99 nM.

In turn, `Cc1c(-c2[nH]c3sc([C@@H]4C[C@@H]5C[C@H]4CN5CCO)c(C)c3c2C(C)C)cn2ncnc2c1C` [Example 229] gave a kinetic solubility at 24 h in data set [2] of 27.7 µg/mL (≈ 59.7 µM). In addition, the “Predicted Clearance” value in data set [3] is 3.67 mL/min/kg. The concentration giving a half-maximal response (EC50) was 0.35 nM at TLR8 and 0.06 nM on TLR7.

Take `Cc1c(-c2[nH]c3sc(C4CCC(C(=O)N5CCNCC5)CC4)c(C)c3c2C(C)C)cn2ncnc2c1C` (stereo not drawn) [Example 309, (4-(5-(7,8-dimethyl-[1,2,4]triazolo[1,5-a]pyridin-6-yl)-4-isopropyl-3-methyl-6H-thieno[2,3-b]pyrrol-2-yl)cyclohexyl)(piperazin-1-yl)methanone]: the half-maximal effective concentration (EC50) was 8.07 nM at TLR8 and 0.14 nM at TLR7.

For `Cc1c(C2CCC(C(=O)N3CCNCC3)CC2)sc2[nH]c(-c3cc(C)c4ncnn4c3)c(C(C)C)c12` (stereo not drawn) [Example 310], the EC50 on TLR8 worked out at 9.94 nM; at TLR7, 0.25 nM.

For `Cc1c(-c2[nH]c3ccc(C4CCN(CC(N)=O)CC4)cc3c2C(C)C)cn2ncnc2c1C` [Example A-1, reference compound], the IC50 in data set [1] (setting [4]) is 300 nM. The kinetic solubility at 24 h in data set [2] is below 1 µg/mL. Besides, the “Predicted Clearance” value in data set [3] is 4.5 mL/min/kg.
